Experiments:
[1] = Simulated plasma concentration of BXA (non-parametric superposition, Phoenix WinNonlin); design: species or system ferret; settings: for terminal elimination half-life extrapolated from mean plasma concentrations between 6 and 24 hours: four ferrets; for Ratio of BXA concentration to EC90: EC90 0.42 ng/mL; for Ratio of BXA concentration to Target concentration: target 6.85 ng/mL
Excerpt: Plasma concentrations of BXA after dosing of BXM twice daily were estimated using the non‐parametric superposition function in Phoenix WinNonlin software (https://onlinehelp.certara.com/phoenix/8.2/topics/nonparasuper.htm) based on the mean plasma concentrations of BXA following single‐dose administration of BXM. Dosing type was used as “Variable.” The computation method used for interpolation and extrapolation of untransformed data was selected as logarithm (Log).

[2] = tested on: influenza A/Kadoma/3/2006 strain; settings: A/Kadoma/3/2006, yield reduction assay, cited from earlier work
[3] = two doses BXM 10 mg/kg, 24 hours after first dosing
[4] = two doses BXM 10 mg/kg, 48 hours after first dosing
[5] = two doses BXM 30 mg/kg, 24 hours after first dosing
[6] = two doses BXM 30 mg/kg, 48 hours after first dosing

O=C1c2c(O)c(=O)ccn2N([C@@H]2c3ccccc3SCc3c2ccc(F)c3F)[C@@H]2COCCN12 [BXA, baloxavir acid]
terminal elimination half-life extrapolated from mean plasma concentrations between 6 and 24 hours ([1]; BXM 10 mg/kg): 6.57 h | terminal elimination half-life extrapolated from mean plasma concentrations between 6 and 24 hours ([1]; BXM 30 mg/kg): 4.08 h | Simulated plasma concentration ([1]; BXM single dose 10 mg/kg, 2.5 h): 48.5 ng/mL | Simulated plasma concentration ([1]; BXM single dose 10 mg/kg, 3 h): 42.6 ng/mL | Simulated plasma concentration ([1]; BXM single dose 10 mg/kg, 3.5 h): 37.5 ng/mL | Simulated plasma concentration ([1]; BXM single dose 10 mg/kg, 4 h): 33.0 ng/mL | Simulated plasma concentration ([1]; BXM single dose 10 mg/kg, 4.5 h): 29.1 ng/mL | Simulated plasma concentration ([1]; BXM single dose 10 mg/kg, 5 h): 25.7 ng/mL | Simulated plasma concentration ([1]; BXM single dose 10 mg/kg, 5.5 h): 22.7 ng/mL | Simulated plasma concentration ([1]; BXM single dose 10 mg/kg, 6 h): 20.0 ng/mL | Simulated plasma concentration ([1]; BXM single dose 10 mg/kg, 6.5 h): 19.1 ng/mL | Simulated plasma concentration ([1]; BXM single dose 10 mg/kg, 7 h): 18.3 ng/mL | Simulated plasma concentration ([1]; BXM single dose 10 mg/kg, 7.5 h): 17.5 ng/mL | Simulated plasma concentration ([1]; BXM single dose 10 mg/kg, 8 h): 16.7 ng/mL | Simulated plasma concentration ([1]; BXM single dose 10 mg/kg, 8.5 h): 15.8 ng/mL | Simulated plasma concentration ([1]; BXM single dose 10 mg/kg, 9 h): 15.0 ng/mL | Simulated plasma concentration ([1]; BXM single dose 10 mg/kg, 9.5 h): 14.2 ng/mL | Simulated plasma concentration ([1]; BXM single dose 10 mg/kg, 10 h): 13.5 ng/mL | Simulated plasma concentration ([1]; BXM single dose 10 mg/kg, 10.5 h): 12.8 ng/mL | Simulated plasma concentration ([1]; BXM single dose 10 mg/kg, 11 h): 12.1 ng/mL | Simulated plasma concentration ([1]; BXM single dose 10 mg/kg, 11.5 h): 11.5 ng/mL | Simulated plasma concentration ([1]; BXM single dose 10 mg/kg, 12 h): 10.9 ng/mL | Simulated plasma concentration ([1]; BXM single dose 10 mg/kg, 12.5 h): 10.3 ng/mL | Simulated plasma concentration ([1]; BXM single dose 10 mg/kg, 13 h): 9.80 ng/mL | Simulated plasma concentration ([1]; BXM single dose 10 mg/kg, 13.5 h): 9.29 ng/mL | Simulated plasma concentration ([1]; BXM single dose 10 mg/kg, 47.5 h): 0.254 ng/mL | Simulated plasma concentration ([1]; BXM single dose 10 mg/kg, 48 h): 0.241 ng/mL | Simulated plasma concentration ([1]; BXM single dose 30 mg/kg, 2.5 h): 316 ng/mL | Simulated plasma concentration ([1]; BXM single dose 30 mg/kg, 3 h): 292 ng/mL | Simulated plasma concentration ([1]; BXM single dose 30 mg/kg, 3.5 h): 269 ng/mL | Simulated plasma concentration ([1]; BXM single dose 30 mg/kg, 4 h): 248 ng/mL | Simulated plasma concentration ([1]; BXM single dose 30 mg/kg, 4.5 h): 235.6 ng/mL | Simulated plasma concentration ([1]; BXM single dose 30 mg/kg, 5 h): 223.8 ng/mL | Simulated plasma concentration ([1]; BXM single dose 30 mg/kg, 5.5 h): 212.6 ng/mL | Simulated plasma concentration ([1]; BXM single dose 30 mg/kg, 6 h): 202 ng/mL | Simulated plasma concentration ([1]; BXM single dose 30 mg/kg, 6.5 h): 190.3 ng/mL | Simulated plasma concentration ([1]; BXM single dose 30 mg/kg, 7 h): 179.2 ng/mL | Simulated plasma concentration ([1]; BXM single dose 30 mg/kg, 7.5 h): 168.8 ng/mL | Simulated plasma concentration ([1]; BXM single dose 30 mg/kg, 8 h): 159 ng/mL | Simulated plasma concentration ([1]; BXM single dose 30 mg/kg, 8.5 h): 146 ng/mL | Simulated plasma concentration ([1]; BXM single dose 30 mg/kg, 9 h): 134 ng/mL | Simulated plasma concentration ([1]; BXM single dose 30 mg/kg, 9.5 h): 123 ng/mL | Simulated plasma concentration ([1]; BXM single dose 30 mg/kg, 10 h): 112 ng/mL | Simulated plasma concentration ([1]; BXM single dose 30 mg/kg, 10.5 h): 103 ng/mL | Simulated plasma concentration ([1]; BXM single dose 30 mg/kg, 11 h): 94.5 ng/mL | Simulated plasma concentration ([1]; BXM single dose 30 mg/kg, 11.5 h): 86.6 ng/mL | Simulated plasma concentration ([1]; BXM single dose 30 mg/kg, 12 h): 79.4 ng/mL | Simulated plasma concentration ([1]; BXM single dose 30 mg/kg, 12.5 h): 72.8 ng/mL | Simulated plasma concentration ([1]; BXM single dose 30 mg/kg, 13 h): 66.8 ng/mL | Simulated plasma concentration ([1]; BXM single dose 30 mg/kg, 13.5 h): 61.2 ng/mL | Simulated plasma concentration ([1]; BXM single dose 30 mg/kg, 47.5 h): 0.184 ng/mL | Simulated plasma concentration ([1]; BXM single dose 30 mg/kg, 48 h): 0.169 ng/mL | Simulated plasma concentration ([1]; BXM two doses 10 mg/kg (0 and 12 h), 2.5 h): 48.5 ng/mL | Simulated plasma concentration ([1]; BXM two doses 10 mg/kg (0 and 12 h), 3 h): 42.6 ng/mL | Simulated plasma concentration ([1]; BXM two doses 10 mg/kg (0 and 12 h), 3.5 h): 37.5 ng/mL | Simulated plasma concentration ([1]; BXM two doses 10 mg/kg (0 and 12 h), 4 h): 33.0 ng/mL | Simulated plasma concentration ([1]; BXM two doses 10 mg/kg (0 and 12 h), 4.5 h): 29.1 ng/mL | Simulated plasma concentration ([1]; BXM two doses 10 mg/kg (0 and 12 h), 5 h): 25.7 ng/mL | Simulated plasma concentration ([1]; BXM two doses 10 mg/kg (0 and 12 h), 5.5 h): 22.7 ng/mL | Simulated plasma concentration ([1]; BXM two doses 10 mg/kg (0 and 12 h), 6 h): 20.0 ng/mL | Simulated plasma concentration ([1]; BXM two doses 10 mg/kg (0 and 12 h), 6.5 h): 19.1 ng/mL | Simulated plasma concentration ([1]; BXM two doses 10 mg/kg (0 and 12 h), 7 h): 18.3 ng/mL | Simulated plasma concentration ([1]; BXM two doses 10 mg/kg (0 and 12 h), 7.5 h): 17.5 ng/mL | Simulated plasma concentration ([1]; BXM two doses 10 mg/kg (0 and 12 h), 8 h): 16.7 ng/mL | Simulated plasma concentration ([1]; BXM two doses 10 mg/kg (0 and 12 h), 8.5 h): 15.8 ng/mL | Simulated plasma concentration ([1]; BXM two doses 10 mg/kg (0 and 12 h), 9 h): 15.0 ng/mL | Simulated plasma concentration ([1]; BXM two doses 10 mg/kg (0 and 12 h), 9.5 h): 14.2 ng/mL | Simulated plasma concentration ([1]; BXM two doses 10 mg/kg (0 and 12 h), 10 h): 13.5 ng/mL | Simulated plasma concentration ([1]; BXM two doses 10 mg/kg (0 and 12 h), 10.5 h): 12.8 ng/mL | Simulated plasma concentration ([1]; BXM two doses 10 mg/kg (0 and 12 h), 11 h): 12.1 ng/mL | Simulated plasma concentration ([1]; BXM two doses 10 mg/kg (0 and 12 h), 11.5 h): 11.5 ng/mL | Simulated plasma concentration ([1]; BXM two doses 10 mg/kg (0 and 12 h), 12 h (dosing)): 10.9 ng/mL | Simulated plasma concentration ([1]; BXM two doses 10 mg/kg (0 and 12 h), 12.5 h): 43.5 ng/mL | Simulated plasma concentration ([1]; BXM two doses 10 mg/kg (0 and 12 h), 13 h): 65.9 ng/mL | Simulated plasma concentration ([1]; BXM two doses 10 mg/kg (0 and 12 h), 13.5 h): 64.9 ng/mL | Simulated plasma concentration ([1]; BXM two doses 10 mg/kg (0 and 12 h), 24 h): 13.9 ng/mL | Simulated plasma concentration ([1]; BXM two doses 10 mg/kg (0 and 12 h), 47.5 h): 1.16 ng/mL | Simulated plasma concentration ([1]; BXM two doses 10 mg/kg (0 and 12 h), 48 h): 1.10 ng/mL | Simulated plasma concentration ([1]; BXM two doses 30 mg/kg (0 and 12 h), 2.5 h): 316 ng/mL | Simulated plasma concentration ([1]; BXM two doses 30 mg/kg (0 and 12 h), 3 h): 292 ng/mL | Simulated plasma concentration ([1]; BXM two doses 30 mg/kg (0 and 12 h), 3.5 h): 269 ng/mL | Simulated plasma concentration ([1]; BXM two doses 30 mg/kg (0 and 12 h), 4 h): 248 ng/mL | Simulated plasma concentration ([1]; BXM two doses 30 mg/kg (0 and 12 h), 4.5 h): 236 ng/mL | Simulated plasma concentration ([1]; BXM two doses 30 mg/kg (0 and 12 h), 5 h): 224 ng/mL | Simulated plasma concentration ([1]; BXM two doses 30 mg/kg (0 and 12 h), 5.5 h): 213 ng/mL | Simulated plasma concentration ([1]; BXM two doses 30 mg/kg (0 and 12 h), 6 h): 202 ng/mL | Simulated plasma concentration ([1]; BXM two doses 30 mg/kg (0 and 12 h), 6.5 h): 190 ng/mL | Simulated plasma concentration ([1]; BXM two doses 30 mg/kg (0 and 12 h), 7 h): 179 ng/mL | Simulated plasma concentration ([1]; BXM two doses 30 mg/kg (0 and 12 h), 7.5 h): 169 ng/mL | Simulated plasma concentration ([1]; BXM two doses 30 mg/kg (0 and 12 h), 8 h): 159 ng/mL | Simulated plasma concentration ([1]; BXM two doses 30 mg/kg (0 and 12 h), 8.5 h): 146 ng/mL | Simulated plasma concentration ([1]; BXM two doses 30 mg/kg (0 and 12 h), 9 h): 134 ng/mL | Simulated plasma concentration ([1]; BXM two doses 30 mg/kg (0 and 12 h), 9.5 h): 123 ng/mL | Simulated plasma concentration ([1]; BXM two doses 30 mg/kg (0 and 12 h), 10 h): 112 ng/mL | Simulated plasma concentration ([1]; BXM two doses 30 mg/kg (0 and 12 h), 10.5 h): 103 ng/mL | Simulated plasma concentration ([1]; BXM two doses 30 mg/kg (0 and 12 h), 11 h): 94.5 ng/mL | Simulated plasma concentration ([1]; BXM two doses 30 mg/kg (0 and 12 h), 11.5 h): 86.6 ng/mL | Simulated plasma concentration ([1]; BXM two doses 30 mg/kg (0 and 12 h), 12 h (dosing)): 79.4 ng/mL | Simulated plasma concentration ([1]; BXM two doses 30 mg/kg (0 and 12 h), 12.5 h): 208 ng/mL | Simulated plasma concentration ([1]; BXM two doses 30 mg/kg (0 and 12 h), 13 h): 405 ng/mL | Simulated plasma concentration ([1]; BXM two doses 30 mg/kg (0 and 12 h), 47.5 h): 1.60 ng/mL | Simulated plasma concentration ([1]; BXM two doses 30 mg/kg (0 and 12 h), 48 h): 1.47 ng/mL | Ratio of BXA concentration to EC90 [1, 3]: × 33.2 | Ratio of BXA concentration to Target concentration [1, 3]: × 2.0 | Ratio of BXA concentration to EC90 [1, 4]: × 2.6 | Ratio of BXA concentration to Target concentration [1, 4]: × 0.16 | Ratio of BXA concentration to EC90 [1, 5]: × 213 | Ratio of BXA concentration to Target concentration [1, 5]: × 13.0 | Ratio of BXA concentration to EC90 [1, 6]: × 3.5 | Ratio of BXA concentration to Target concentration [1, 6]: × 0.21 | 90% effective concentration (EC90) [2]: 0.42 ng/mL | EC90 ([2]; read-out: 90% effective concentration (EC90)): 0.88 nM

— PMC7578299, “The antiviral effects of baloxavir marboxil against influenza A virus infection in ferrets” (Influenza and Other Respiratory Viruses, 2020)
